# Test results reported in PubChem BioAssay AID1259346.
# pIC50: −log10 of the molar value. The source made the active and inactive calls.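 How the source made its calls: active means IC50 below 1 nM; inactive means the rest.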
# Test system: HCT116 TERT promoter luciferase reporter, 16 h
# Experiment: TERT promoter activity modulators, dose response, HCT116 cells, human (AID 1259346)
pIC50,IC50,SMILES
> 9.00,,Cc1nc2cc(-c3ccc(Br)cc3)nn2c(C)c1CCC(=O)O
> 9.00,,COC(=O)CCc1c(C)nc2cc(-c3ccc(OC)cc3)nn2c1C

# Continued, molecule first:
SMILES,pIC50,IC50
Cc1nc2cc(-c3ccc(C#CCO)cc3)nn2c(C)c1CCC(=O)O,,3600 nM (inactive)
Cc1nc2cc(-c3ccccc3)nn2c(C)c1CCC(=O)O,,7 nM (inactive)
Cc1nc2cc(-c3cccc(Br)c3)nn2c(C)c1CCC(=O)O,,346 nM (inactive)
